This is an account of results in patent US10683286B2, “Furazan-3-carboxylic acid derivatives and use thereof in treatment of cancer” (FREIE UNIVERSITAET BERLIN, priority 2016, dated 2020).

As a reminder, the Ki is a dissociation constant, usually derived from enzyme kinetics or from competition with a known ligand. Low readings indicate tighter binding, high ones weaker binding. What is called Kd is the free concentration of one partner at which half of the binding sites on the other are occupied at equilibrium, for simple one-to-one binding. Lower therefore signals tighter binding. The term IC50 denotes the concentration at which inhibition is half-maximal.

The target in one series is T1, STAT5b-SH2 domain (Homo sapiens, UniProt P51692).
T1 sequence (P51692 136-703): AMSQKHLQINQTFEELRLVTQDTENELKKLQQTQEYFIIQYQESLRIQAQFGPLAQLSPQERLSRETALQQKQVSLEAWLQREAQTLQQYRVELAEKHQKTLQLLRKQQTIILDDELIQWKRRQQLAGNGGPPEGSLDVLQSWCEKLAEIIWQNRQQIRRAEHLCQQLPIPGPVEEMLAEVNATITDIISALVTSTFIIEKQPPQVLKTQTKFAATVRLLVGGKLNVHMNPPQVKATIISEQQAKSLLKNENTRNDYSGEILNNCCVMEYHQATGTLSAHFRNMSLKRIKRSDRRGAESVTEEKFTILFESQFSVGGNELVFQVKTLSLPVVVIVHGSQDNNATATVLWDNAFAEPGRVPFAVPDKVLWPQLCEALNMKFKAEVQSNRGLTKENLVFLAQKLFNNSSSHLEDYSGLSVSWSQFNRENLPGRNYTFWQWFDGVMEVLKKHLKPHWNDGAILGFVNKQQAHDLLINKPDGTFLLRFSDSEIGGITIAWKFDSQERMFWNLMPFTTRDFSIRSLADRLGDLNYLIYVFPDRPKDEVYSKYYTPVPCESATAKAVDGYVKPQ
As to the kind of experiment: Competitive fluorescence polarization (FP) assay, STAT5b-SH2 domain. The conditions noted are these: for activity / binding to the STAT5-SH2 domain: in words. (In fluorescence polarisation assays a small probe gives low polarisation when free and higher when bound to something large.)

The target in another series is T2, STAT3 (Mus musculus, UniProt P42227).
T2 construct: endogenous in cells; context BaF3/FLT3-ITD
The series is described as follows: STAT3 phosphorylation and expression in cells. The following applies: selectivity in cells. It counts as cell-based.

Series [1] relates to Pim1 kinase, cyclin D1 and Bcl-xl. As to the kind of experiment: Expression of transcriptional targets of STAT5, Western blot in BaF3/FLT3-ITD cells. Format: cell-based, murine. The following applies: BaF3/FLT-ITD cells, after 6 h. The text has this:
(FIGS. 7A, B). Next, the functional effects of STAT5 inhibitors (6) and (15) on cellular transcription were investigated. For the purpose, the expression of three transcriptional targets of STAT5, namely Pim1 kinase, cyclin D1 and Bcl-xl, which play essential roles in cell cycle progression and survival, was monitored by Western Blotting (FIGS. 6A, B).
On the technique in general: In western blotting, separated proteins are transferred to a membrane and probed.

A further series concerns BaF3/FLT3-ITD cells. As to the kind of experiment: Cell proliferation assay (Alamar blue). Format: cell-based, murine. As to the method: Having proven the functional inhibition of STAT5 as a transcription factor, the effect of STAT5 inhibitors on the proliferation of cancer cells carrying the common FLT3-ITD mutation was investigated. Cells were incubated for 48 h and cell proliferation was quantified by the Alamar blue assay (FIG. 5). […] For comparison, we have tested both compounds on non-STAT5-dependent cell lines and the cytotoxicity effect were negligible up to 500 μM. (FIG. S9).
(§1) The effect of compounds on cell lines was evaluated by In Vitro Toxicology Assay Kit, Resazurin based with indicator dye Alamar Blue (Sigma). Adherent and suspension cells were plated at 5×10^3 per well and 1×10^4 per well respectively in triplicate in 96-well plates and incubated in medium containing 10% FBS. For adherent cell, the complete medium was replaced after 24 hours and incubated with test medium containing vehicle control or serial concentration of compounds for 48 hours at 37° C. The remaining wells in the periphery of the microtiter well plate were added PBS and not used to avoid evaporation effects. Alamar Blue was then added, and all plates were incubated at 37° C., and a colorimetric change was measured according to the methods provided by the provided protocol.
(In general: Alamar Blue is a resazurin reagent that responds to reducing activity.)

For series [2], the system named is non-STAT5-dependent cell lines. The series is described as follows: Cytotoxicity on non-STAT5-dependent cell lines. Format: cell-based. The following applies: up to 500 μM. On the procedure: Carol Stocking (University Hospital Hamburg-Eppendorf). […] Cells were incubated at 37° C., 5% CO2 atmosphere.
as §1

In a further series the test system is STAT5. As to the kind of experiment: STAT5 phosphorylation, Western blot in BaF3/FLT3-ITD cells.

SMILES strings stand for the structures. Where two headings read alike, the source gives them in different places. Where a SMILES comes first, the peptide text is derived from it. [ ]: non-standard residue; d: D form. The star is where a group is joined. 5FAM = O=C1OC2(c3ccc(O)cc3Oc3cc(O)ccc32)c2ccc(C(=O)*)cc21; pY = N[C@@H](Cc1ccc(OP(=O)(O)O)cc1)C(=O)O Where only a bound is given, the exact number is not on record here.

T2 sequence (P42227 whole entry): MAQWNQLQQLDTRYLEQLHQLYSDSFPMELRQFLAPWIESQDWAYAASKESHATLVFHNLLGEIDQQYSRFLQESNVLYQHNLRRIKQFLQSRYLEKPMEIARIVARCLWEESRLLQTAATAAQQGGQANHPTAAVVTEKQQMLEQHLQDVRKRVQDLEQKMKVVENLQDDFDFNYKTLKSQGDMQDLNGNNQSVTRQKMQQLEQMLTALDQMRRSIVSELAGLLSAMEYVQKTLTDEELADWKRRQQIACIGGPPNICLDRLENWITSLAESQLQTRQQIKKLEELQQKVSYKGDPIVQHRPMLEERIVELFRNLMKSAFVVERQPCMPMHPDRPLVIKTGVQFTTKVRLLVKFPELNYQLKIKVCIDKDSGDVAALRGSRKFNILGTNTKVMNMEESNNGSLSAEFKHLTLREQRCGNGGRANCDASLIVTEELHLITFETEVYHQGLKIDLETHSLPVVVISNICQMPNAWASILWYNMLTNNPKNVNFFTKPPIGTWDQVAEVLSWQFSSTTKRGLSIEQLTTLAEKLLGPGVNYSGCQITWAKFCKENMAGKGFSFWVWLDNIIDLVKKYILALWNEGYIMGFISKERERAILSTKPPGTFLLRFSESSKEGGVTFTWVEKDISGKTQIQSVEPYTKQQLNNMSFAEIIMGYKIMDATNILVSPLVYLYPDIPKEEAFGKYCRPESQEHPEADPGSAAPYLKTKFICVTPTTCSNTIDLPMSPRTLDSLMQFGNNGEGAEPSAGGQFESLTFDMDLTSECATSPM
Experimental for STAT3: Cells were seeded at 0.5×10^6 in 6 well plate and allowed to grow overnight followed by 6 hour incubation with test compounds (0.1% DMSO) before protein extraction with M-PER™ Mammalian Protein Extraction Reagent (Pierce) containing 1% (vol/vol) complete protease inhibitor cocktail (Roche Molecular Biochemicals) and 1% (vol/vol) phosphate inhibitor cocktail (Sigma). For Western blotting, 15 μg of protein from each sample were then separated on a 10% SDS-PAGE and transferred to a PVDF membrane. The blots were blocked with TBST buffer (20 mM Tris-HCl [pH 7.4], 140 mM sodium chloride, and 0.05% Tween 20) containing 5% BSA at room temperature for 1 hour, washed 3 times in TBST buffer, and incubated with primary antibody overnight at 4° C. The membranes were then incubated with HRP-conjugated secondary antibody at room temperature for 1 hour. The reaction products were detected using Syngene Pxi4 imager and quantified by Image J.
Experimental for STAT5b-SH2 domain: The ChemBioNet fragment collection composed in accordance with the substructure composition of the World Drug Index (WDI) was screened both for enhancing and inhibiting fragments of the phosphopeptide-STAT5 interaction.
The clone for Stat5b expression was kindly provided by Thorsten Berg (MPI, Martinsried). Expression of that truncated version of Stat5b (aa 136-703) cloned into a modified pQE70, with N-terminal MBP-tag and C-terminal His-tag was conducted on autoinduction medium (overnight express/Novagen). Cells were grown to an optical density (O.D.) of 0.3 at 37° C., then the temperature was reduced to 20° C. for further 48 h of expression. […] The protein was purified by Ni-chelating chromatography followed by gel filtration (Superdex 200/10 mM HEPES pH 7.8, 100 mM NaCl, 1 mM EDTA, 1 mM DTT, 10% glycerol). A yield of 15 mg MBP-Stat5b-His per liter of culture was obtained and aliquots (200 μl of 3.2 mg/ml) were quick-frozen and stored at −80° C., ready for use.
17000 compounds from the (FMP) ChemBioNet library were tested in a competitive-based fluorescence polarization (FP) assay to investigate the ability of compounds to bind to STAT5b-SH2 domain by displacing respective fluorophore-labeled peptides (5-carboxyfluorescein-GY (PO3H2) LSLPPW-NH2). The peptide purity was >95% and the screening were performed at room temperature. The final concentration of buffer components used was 10 mM HEPES (pH 7.5), 1 mM EDTA, 0.1% Igepal CA-630, 50 mM NaCl, and 5% DMSO. The final concentration of protein used was at 65 nM which correspond to the dissociation constants (Kd) for the individual protein-peptide interactions in assay buffer. The protein was first added to the black 384 well plate (Corning 3676) followed by test compounds and fluorophore-labeled peptide. The plates were centrifuged, and measured using Safire^2 well plate reader (Tecan, Crailsheim, Germany) after 15 minutes incubation at room temperature. […] For the analysis of the data GraphPad Prism 5 was used. Ligand efficiencies (LE) were calculated using equation derived as followed. LE=−ΔG°/HA with (ΔG°) is the standard free energy of binding in KJ and HA is the number of non-hydrogen atoms.

Compound `O=Cc1ccc(OP(=O)(O)O)cc1` [Compound 1, 4-Formylphenyl-dihydrogen-phosphate, reference compound] registered a Ki on STAT5b-SH2 domain greater than 500 µM.
As for `CC(C)C[C@H](NC(=O)[C@H](Cc1ccc(OP(=O)(O)O)cc1)NC(=O)CNC(=O)c1ccc2c(c1)C(=O)OC21c2ccc(O)cc2Oc2cc(O)ccc21)C(=O)N[C@@H](CO)C(=O)N[C@@H](CC(C)C)C(=O)N1CCC[C@H]1C(=O)N1CCC[C@H]1C(=O)N[C@@H](Cc1c[nH]c2ccccc12)C(N)=O` [Compound 2, Fluo-GY*LSLPPW-NH2, reference compound] (5FAM-G[pY]LSLPPW-NH2), at STAT5b-SH2 domain, binding was characterised by a dissociation constant (Kd) of 0.055 µM and the Ki was 0.055 ± 0.006 µM. Further, on STAT5b-SH2 domain (Table 1, ligand efficiency), the LE is listed as 0.42 kJ/mol* atom#.
On STAT5b-SH2 domain (Table 1, ligand efficiency), `Nc1nonc1C(=O)O` [Compound 4, 4-Amino-furazan-3-carboxylic Acid] had an LE of 2.14 kJ/mol* atom#. In addition, the “activity / binding to the STAT5-SH2 domain” value (from here on “activity / binding”) on STAT5b-SH2 domain is “inactive”.
On to `c1nnn[nH]1` [Compound 5, 1H-tetrazole, reference compound], for which the Ki on STAT5b-SH2 domain (Table 1, inhibitors of STAT5b, KI converted from IC50) was greater than 500 µM. Further, the “activity / binding” value on STAT5b-SH2 domain was “inactive”.
Regarding `COC(=O)c1nonc1NCn1cnnn1` [Compound 6, Methyl 4-((1H-tetrazol-1-yl)-methylamino)-furazan-3-carboxylate], at STAT3, the STAT3 phosphorylation entry was “negligible effects” and the “endogenous STAT3 expression” value is reported as “negligible effects”. Also, the “Pim1, cyclin D1 and Bcl-xL expression” value in series [1] is reported as “dose dependent reduction”. Also, at STAT5b-SH2 domain, the Kd came out at 76 µM and the Ki came to 37.4 ± 1.2 µM. The LE at STAT5b-SH2 domain (Table 1, ligand efficiency) stood at 1.58 kJ/mol* atom#. Further, in the series with BaF3/FLT3-ITD cells (48 h, Alamar blue, FLT3-ITD cells), the “inhibition of cell proliferation” value is listed as “clear dose-dependent inhibition”. Moreover, in series [2], the cytotoxicity effect result is listed as “negligible”. Besides, in the series with STAT5 (25 μM, 6 h, BaF3/FLT3-ITD), the “reduction of STAT5 phosphorylation” value is on record as “clear reduction”. The “tyrosine phosphorylation of STAT5, dose dependence” value with STAT5 (6 h treatment, BaF3/FLT3-ITD) is “decrease the tyrosine phosphorylation of STAT5 in a dose dependent manner”. The “overall expression of endogenous STAT5” value with STAT5 (BaF3/FLT3-ITD) is listed as “no effect”. Further, in the series on STAT5 (read-out: IC50 of STAT5 phosphorylation inhibition, BaF3/FLT3-ITD cells, 6 h), the half-maximal inhibitory concentration (IC50) was 44.2 µM.
At STAT5b-SH2 domain, `CCCCOC(=O)c1nonc1NCn1cnnn1` [Compound 7] gave a Kd of 145 µM and a Ki of 48.2 ± 5 µM. At STAT5b-SH2 domain (Table 1, ligand efficiency), this compound gave an LE of 1.30 kJ/mol* atom#.
`COC(=O)c1nsnc1NCn1cnnn1` [Compound 8]: on STAT5b-SH2 domain, the Ki was greater than 500 µM and the “activity / binding” value is “inactive”.
For the compound `O=C(O)c1nonc1NCn1ccnn1` [Compound 9], at STAT5b-SH2 domain, the Ki was determined as 191 ± 24 µM and the “activity / binding” value was “completely inactive”. At STAT5b-SH2 domain (Table 1, ligand efficiency), this compound displayed an LE of 1.41 kJ/mol* atom#.
In the same order, the values of `O=C(O)c1nonc1NCn1cncn1` [Compound 10] are 47.5 ± 8.5 µM, “completely inactive” and 1.64 kJ/mol* atom#.
`O=C(O)c1nonc1NCc1ccccn1` [Compound 11]: on STAT5b-SH2 domain, the Ki is greater than 500 µM and the “activity / binding” value is “completely inactive”.
As for `O=C(O)c1nonc1NCn1nnc2ccccc21` [Compound 12], at STAT5b-SH2 domain, the Ki turned out to be 188 ± 25 µM and the “activity / binding” value is “completely inactive”. Besides, on STAT5b-SH2 domain (Table 1, ligand efficiency), the LE is recorded as 1.12 kJ/mol* atom#.
Consider `O=C(O)c1nonc1NCn1cccn1` [Compound 13], for which, at STAT5b-SH2 domain, the Kd was 122 µM and the Ki was found to be 122 ± 7.3 µM. The compound also yielded an LE at STAT5b-SH2 domain (Table 1, ligand efficiency) of 1.49 kJ/mol* atom#.
Take `COC(=O)c1nonc1NC(=O)Cn1cnnn1` [Compound 14]: on STAT5b-SH2 domain, the Ki is greater than 500 µM and the “activity / binding” value is “abolished the activity”.
As for `COC(=O)c1nonc1NCn1nnnc1-c1ccccc1` [Compound 17], at STAT5b-SH2 domain, the dissociation constant (Kd) is 37 µM; the affinity, expressed as Ki, was 37.1 ± 6 µM; the LE amounted to 1.15.
Turning to `COC(=O)c1nonc1NCn1nnnc1-c1ccc(C(F)(F)F)cc1` [Compound 18], at STAT5b-SH2 domain, the Ki is 94.9 ± 2.1 µM and the LE is reported as 0.88.
Consider `O=C(O)c1nonc1NCn1nnnc1-c1cccc(OCc2ccccc2)c1` [Compound 19], for which, at STAT5b-SH2 domain, the Ki turned out to be 1.2 ± 0.5 µM and the LE came to 1.16.
For `COC(=O)c1nonc1NCn1nnnc1-c1cccc(C(F)(F)F)c1` [Compound 20], at STAT5b-SH2 domain, the inhibition constant (Ki) came out at 9.5 ± 1.8 µM and the LE worked out at 1.10.
At STAT5b-SH2 domain, `O=C(O)c1nonc1NCn1nnnc1-c1cccc(C(F)(F)F)c1` [Compound 21] gave a Kd of 0.86 µM, a Ki of 0.86 ± 0.05 µM and an LE of 1.38.
For the compound `COC(=O)c1nonc1NCn1nnnc1-c1cccc([N+](=O)[O-])c1` [Compound 22], the Ki at STAT5b-SH2 domain was greater than 500 µM.
For `COC(=O)c1nonc1NCn1nnnc1-c1cccc(NS(C)(=O)=O)c1` [Compound 23], at STAT5b-SH2 domain, affinity was put at a Ki of 18.3 ± 2.4 µM and the LE is 1.00.
For the compound `COC(=O)c1nonc1NCn1nnnc1-c1cccc(O)c1` [Compound 24], at STAT5b-SH2 domain, the Ki stood at 22.3 ± 3 µM and the LE turned out to be 1.21.
In the case of `COC(=O)c1nonc1NCn1nnnc1-c1cccc(OC(F)(F)F)c1` [Compound 25], on STAT5b-SH2 domain, the affinity corresponds to a Ki of 16.7 ± 4.3 µM and the LE is recorded as 1.01.
As for `O=C(O)c1nonc1NCn1nnnc1-c1cccc(OC(F)(F)F)c1` [Compound 26], at STAT5b-SH2 domain, affinity was put at a Ki of 3 ± 0.7 µM and the LE is 1.21.
Consider `O=C(O)c1nonc1NCn1nnnc1-c1cccc(F)c1` [Compound 27], for which, on STAT5b-SH2 domain, the Kd is 0.62 µM, the Ki is 0.62 ± 0.09 µM and the LE was 1.61.
The compound `O=C(O)c1nonc1NCn1nnnc1-c1ccc(F)cc1` [Compound 28] returned an LE on STAT5b-SH2 domain of 1.42.
As to `O=C(O)c1nonc1NCn1nnnc1-c1ccc(-c2ccccc2)cc1` [Compound 29], at STAT5b-SH2 domain, the Kd came out at 0.8 µM, the inhibitory constant (Ki) stood at 0.8 ± 0.2 µM and the LE is on record as 1.30.
On to `O=C(O)c1nonc1NCn1nnnc1Cc1ccc(F)cc1` [Compound 31], for which, at STAT5b-SH2 domain, the Ki stood at 7.2 ± 1.9 µM and the LE came to 1.28.
Regarding `O=C(O)c1nonc1NCn1nnnc1COc1ccccc1` [Compound 100], the “cellular activity (cell proliferation curves, FIG. 8)” value (shortened to “cellular activity”) with BaF3/FLT3-ITD cells is reported as “significant cellular activity”.
As for `O=C(O)c1nonc1NCn1nnnc1CCOc1ccccc1` [Compound 104], the “cellular activity” value with BaF3/FLT3-ITD cells was “significant cellular activity”.
On the same count and under the same terms, to `O=C(O)c1nonc1NCn1nnnc1COCc1ccccc1` [Compound 108] belongs “significant cellular activity”.
With `O=C(O)c1nonc1NCn1nnnc1COCCc1ccccc1` [Compound 113], in the series on BaF3/FLT3-ITD cells, the “cellular activity” value is given as “significant cellular activity”.
As to `O=C(O)c1nonc1NCn1nnnc1CCc1ccccc1` [Compound 169], the “cellular activity” value in the series on BaF3/FLT3-ITD cells is “significant cellular activity”.
The same measure, in the same setting: to `O=C(O)c1nonc1NCn1nnnc1Cc1cccc(Cl)c1` [Compound 173] belongs “significant cellular activity”; to `Cc1ccc(Cc2nnnn2CNc2nonc2C(=O)O)cc1` [Compound 174], “significant cellular activity”.
`COc1ccc(Cc2nnnn2CNc2nonc2C(=O)O)cc1` [Compound 177]: the “cellular activity” value with BaF3/FLT3-ITD cells is reported as “significant cellular activity”.
For `O=C(O)c1nonc1NCn1nnnc1Cc1cccc(F)c1` [Compound 178], the “cellular activity” value in the series with BaF3/FLT3-ITD cells was “significant cellular activity”.
With `O=C(O)c1nonc1NCn1nnnc1CCCc1ccccc1` [Compound 196], in the series on BaF3/FLT3-ITD cells, the “cellular activity” value is listed as “significant cellular activity”.
